In publication PMC7812675 (ACS Medicinal Chemistry Letters, 2020):
Where two headings read alike, the source gives them in different places. Square brackets hold non-standard residues; d marks the D form. Peptide text beside a SMILES is read from it. Hyp = O=C(O)[C@@H]1C[C@@H](O)CN1

Columns and labels:
MsCI4 (MsCI4WW/FF) [1] = target: T1, MsCI4 (MsCI4WW/FF) (Magnetospirillum gryphiswaldense, UniProt A4TVL0, W36F/W59F); settings: MANT-uracil reporter
[2] = target: T2, VHL/EloB/EloC complex (VBC) (Homo sapiens, UniProt P40337); assay: Competitive MST assay, unlabeled peptides against VHL and FAM reporter peptide; type: binding; settings: ± confidence interval
T2 construct: VHL54-213 fused to an N-terminal TwinStrep-tag; TwinStrep-tag (TEV site) (N, cleaved yes); made in house; host or cells: E. coli BL21(DE3)

MsCI4 (MsCI4WW/FF) [3] = target: T1, MsCI4 (MsCI4WW/FF); settings: cited from earlier work
[4] = target: T3, Magnetospirillum gryphiswaldense cereblon isoform 4 (MsCI4) (Magnetospirillum gryphiswaldense, UniProt A4TVL0); type: binding; settings: competitive DMSO titration
T3 construct: made in house
T3 sequence (A4TVL0 1-124): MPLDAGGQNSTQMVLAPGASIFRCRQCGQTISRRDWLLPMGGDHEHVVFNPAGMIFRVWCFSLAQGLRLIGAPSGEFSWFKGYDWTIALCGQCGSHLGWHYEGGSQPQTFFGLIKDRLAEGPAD

[5] = target: T4, human CRBN (hCRBN) thalidomide binding domain (hTBD) (Homo sapiens, UniProt Q96SW2); assay: Competitive MST assay with BODIPY-uracil reporter and hTBD; settings: for binding to hTBD in the MST assay (words; n.b., no binding): 10 µM hTBD/200 nM BODIPY-uracil
T4 construct: 319-425; GST (thrombin site) (N, cleaved yes); made in house; host or cells: E. coli Rosetta 2(DE3)pLysS

[6] = target: T3, Magnetospirillum gryphiswaldense cereblon isoform 4 (MsCI4); type: binding; settings: initial fluorescence measurement, 200 nM BODIPY-uracil
[7] = target: T4, human CRBN (hCRBN) thalidomide binding domain (hTBD); assay: Initial fluorescence (quenching) titration of hTBD against BODIPY-uracil; settings: initial fluorescence measurement, 200 nM BODIPY-uracil
[8] = IC50, FAM-11mer competition, 570 nM VBC/20 nM FAM-11mer reporter
[9] = IC50, FAM-19mer competition, 80 nM VBC/20 nM FAM-19mer reporter

## O=C1CN(/N=C/c2ccccc2[N+](=O)[O-])C(=O)N1 [2-NP-AHD, 1-(2-nitrobenzylideneamino)hydantoin]
MsCI4 (MsCI4WW/FF) [1]
  binding to MsCI4 in the FRET assay (words): absence of affinity

## CC[C@H](C)[C@H](NC(=O)[C@H](Cc1ccc(O)cc1)NC(=O)[C@@H]1C[C@@H](O)CN1C(=O)[C@H](C)NC(=O)[C@H](CC(C)C)NC(=O)[C@H](C)NC(=O)[C@H](CCC(=O)O)NC(=O)[C@@H](N)CC(=O)O)C(=O)N1CCC[C@H]1C(=O)N[C@@H](CCSC)C(=O)N[C@@H](CC(=O)O)C(=O)O [11mer] (H-DEALA[Hyp]YIPMD-OH)
[2]; [8]
  IC50: 1.8 ± 0.81 µM
[2]; [9]
  IC50: 1.42 ± 0.95 µM

## CC[C@H](C)[C@H](NC(=O)[C@H](Cc1ccc(O)cc1)NC(=O)[C@@H]1C[C@@H](O)CN1C(=O)[C@H](C)NC(=O)[C@H](CC(C)C)NC(=O)[C@H](C)NC(=O)[C@H](CCC(=O)O)NC(=O)[C@@H](N)CC(=O)O)C(=O)N1CCC[C@H]1C(=O)N[C@@H](CCSC)C(=O)N[C@@H](CC(=O)O)C(=O)N[C@@H](CC(=O)O)C(=O)N[C@@H](CC(=O)O)C(=O)N[C@@H](Cc1ccccc1)C(=O)N[C@@H](CCC(N)=O)C(=O)N[C@@H](CC(C)C)C(=O)N[C@@H](CCCNC(=N)N)C(=O)N[C@@H](CO)C(=O)N[C@@H](Cc1ccccc1)C(=O)O [19mer]
[2]; [8]
  IC50: 0.803 ± 0.45 µM
[2]; [9]
  IC50: 0.572 ± 0.26 µM

## O=c1ccn([C@@H]2O[C@H](CO)[C@@H](O)[C@H]2O)c(=O)[nH]1 [Uridine, uridine]
MsCI4 (MsCI4WW/FF) [3]
  affinity to MsCI4 in the FRET assay: high affinity

## DMSO
[4]
  Ki as corresponding concentration of DMSO, MsCI4: 0.08 % (v/v)
[5]; competitive DMSO titration
  Ki as corresponding concentration of DMSO, hTBD: 1.0 % (v/v)

## O=c1ccn([C@@H]2O[C@H](COP(=O)(O)O)[C@@H](O)[C@H]2O)c(=O)[nH]1 [UMP, uridine-5′-monophosphate]
[5]
  binding to hTBD in the MST assay (words; n.b., no binding): abolished binding completely

## O=C1CN(/N=C/c2ccc([N+](=O)[O-])o2)C(=O)N1 [Nitrofurantoin, nitrofurantoin]
MsCI4 (MsCI4WW/FF) [1]
  binding to MsCI4 in the FRET assay (words): do not show binding
MsCI4 (MsCI4WW/FF) [1]; listed as nitrofurantoin
  binding to MsCI4 in the FRET assay (words): did not show any binding
[5]
  binding to hTBD in the MST assay (words; n.b., no binding): did not show any binding

## CC1=CC(C)=[N+]2C1=C(CCC(=O)NCCn1ccc(=O)[nH]c1=O)c1c(C)cc(C)n1[B-]2(F)F [BODIPY-uracil]
[6]
  Kd: 3.8 µM
[7]
  Kd: 11 µM

## O=C1CN(/N=C/c2ccccc2)C(=O)N1 [1-Benzylidene-aminohydantoin, 1-benzylideneaminohydantoin]
MsCI4 (MsCI4WW/FF) [1]
  binding to MsCI4 in the FRET assay (words): absence of affinity
